pIC50: −log10 of the molar value.
Test system: YAP/TAZ-TEAD transcription
Assay: Reporter gene assay for measuring the inhibition of YAP/TAZ-TEAD transcription (TEAD-responsive element luciferase reporter in Hek293T cells)
Type: cell-based
Details: Hek293T cells transiently transfected with TEAD-responsive element luciferase reporter, 24 hours incubation
Method: Hek293T cells are cultured in DMEM supplemented with 10% fetal bovine serum, Sodium pyruvate, Sodium bicarbonate, L-glutamine. The cells are harvested and transiently transfected with TEAD-responsive element luciferase reporter. Transfected cells are plated in 384-wells plate containing pre-diluted compounds. After 24 hours incubation at 37° C./5% CO2, assay plates were cooled down to RT and levelled to an equal volume per well, prior to the addition of 25 uL luciferase substrate SteadyLite (Perkin Elmer)/well. The plate was shaken for 10 min at 600 rpm, centrifuged for 1 min at 500 rpm and measured with an Envision reader (PerkinElmer). The amount of relative light units produced by the TEAD reporter is used to calculated percent of inhibition. The percent of reporter inhibition was calculated in the presence of a positive control inhibitor (100% inhibition) versus a condition with the presence of the vehicle basal activity of the reporter (0% inhibition). The ability of a test compound to inhibit this activity was determined as: Percentage inhibition=[[…]((RLU determined in the presence of vehicle−RLU determined for sample with test compound present) divided by (RLU determined in the presence of vehicle−RLU determined for sample with positive control inhibitor))]*100
The activities of example compounds tested are depicted in the table below. The activity ranges A, B and C refer to IC50 values in the reporter gene assay as follows: “A”: IC50<1 μM; “B”: 1 μM≤IC50≤20 μM and “C”: IC50>20 μM; NT=not tested.

SMILES	pIC50 (Homo sapiens, HEK-293T, 24 h)	pIC50
C=CC(=O)NC1Cc2ccccc2N(c2ccc(F)cc2)C1 (centres unmarked) [compound 035, N-(1-(4-fluorophenyl)-1,2,3,4-tetrahydroquinolin-3-yl)acrylamide]	> 6.00	
C=CC(=O)NCC1Cc2c(CC(=O)O)cccc2N(c2ccc(C(F)(F)F)cc2)C1 (centres unmarked) [Cpd. No. 161, 2-(3-(acrylamidomethyl)-1-(4-(trifluoromethyl)phenyl)-1,2,3,4-tetrahydroquinolin-5-yl)acetic acid]		4.70 to 6.00
C=CC(=O)NC1Cc2ccccc2N(c2ccc3cc[nH]c3c2)C1 (centres unmarked) [compound 017, N-(1-(1H-indol-6-yl)-1,2,3,4-tetrahydroquinolin-3-yl)acrylamide]	> 6.00	
C=CC(=O)NC1Cc2ccccc2N(c2cccc(Cl)c2)C1 (centres unmarked) [compound 032, N-(1-(3-chlorophenyl)-1,2,3,4-tetrahydroquinolin-3-yl)acrylamide]	> 6.00	
C=CC(=O)NC1Cc2ccccc2N(c2cccc(F)c2F)C1 (centres unmarked) [compound 025, N-(1-(2,3-difluorophenyl)-1,2,3,4-tetrahydroquinolin-3-yl)acrylamide]	> 6.00	
C#CC(=O)NC1Cc2ccccc2N(c2ccc(C(F)(F)F)cc2)C1 (centres unmarked) [compound 040, N-(1-(4-(trifluoromethyl)phenyl)-1,2,3,4-tetrahydroquinolin-3-yl)propiolamide]	> 6.00	
OCCCNC1Cc2ccccc2N(c2ccc(C(F)(F)F)cc2)C1 (single isomer, unassigned) [045-En1, (R)- or (S)-3-((1-(4-(trifluoromethyl)phenyl)-1,2,3,4-tetrahydroquinolin-3-yl)amino)propan-1-ol]		4.70 to 6.00
NC1Cc2ccccc2N(c2ccc(C(F)(F)F)cc2)C1 (centres unmarked) [171 (Int-3), 1-(4-(trifluoromethyl)phenyl)-1,2,3,4-tetrahydroquinolin-3-amine]	4.70 to 6.00	
OCCCNC1Cc2ccccc2N(c2ccc(C(F)(F)F)cc2)C1 (single isomer, unassigned) [045-En2, (R)- or (S)-3-((1-(4-(trifluoromethyl)phenyl)-1,2,3,4-tetrahydroquinolin-3-yl)amino)propan-1-ol]		4.70 to 6.00
C=CC(=O)NC1Cc2ccccc2N(c2cc(F)cc(F)c2)C1 (centres unmarked) [compound 027, N-(1-(3,5-difluorophenyl)-1,2,3,4-tetrahydroquinolin-3-yl)acrylamide]	> 6.00	
CS(=O)(=O)CCNC1Cc2ccccc2N(c2ccc(C(F)(F)F)cc2)C1 (centres unmarked) [compound 049, N-(2-(methylsulfonyl)ethyl)-1-(4-(trifluoromethyl)phenyl)-1,2,3,4-tetrahydroquinolin-3-amine]	4.70 to 6.00	
C=CC(=O)NC1Cc2ccccc2N(c2ccc(OC)cc2)C1 (centres unmarked) [compound 007, N-(1-(4-methoxyphenyl)-1,2,3,4-tetrahydroquinolin-3-yl)acrylamide]	> 6.00	
C=CS(=O)(=O)NC1Cc2ccccc2N(c2ccc(C(F)(F)F)cc2)C1 (centres unmarked) [compound 048, N-(1-(4-(trifluoromethyl)phenyl)-1,2,3,4-tetrahydroquinolin-3-yl)ethenesulfonamide]	> 6.00	
C=CC(=O)NC1Cc2ccccc2N(c2ccnc(C(F)(F)F)c2)C1 (centres unmarked) [compound 012, N-(1-(2-(trifluoromethyl)pyridin-4-yl)-1,2,3,4-tetrahydroquinolin-3-yl)acrylamide]	4.70 to 6.00	
C=CC(=O)NC1Cc2ccccc2N(c2cccc(NC(C)=O)c2)C1 (centres unmarked) [compound 015, N-(1-(3-acetamidophenyl)-1,2,3,4-tetrahydroquinolin-3-yl)acrylamide]	4.70 to 6.00	
NCC1Cc2ccccc2N(c2ccc(C(F)(F)F)cc2)C1 (centres unmarked) [170 (Int-10), (1-(4-(trifluoromethyl)phenyl)-1,2,3,4-tetrahydroquinolin-3-yl)methanamine]	4.70 to 6.00	

The remaining lines, values ahead:

pIC50 (Homo sapiens, HEK-293T, 24 h)	pIC50	SMILES
4.70 to 6.00		CCC(=O)NC1Cc2c(Cc3ccccc3)cccc2N(c2ccc(C(F)(F)F)cc2)C1 (centres unmarked) [compound 067, N-(5-benzyl-1-(4-(trifluoromethyl)phenyl)-1,2,3,4-tetrahydroquinolin-3-yl)propionamide]
> 6.00		C=CC(=O)NCC1Cc2ccccc2N(c2ccc(OC)cc2)C1 (centres unmarked) [compound 091, N-((1-(4-methoxyphenyl)-1,2,3,4-tetrahydroquinolin-3-yl)methyl)acrylamide]
> 6.00		C=CC(=O)NCC1Cc2ccccc2N(c2ccc(C)cc2C)C1 (centres unmarked) [compound 116, N-((1-(2,4-dimethylphenyl)-1,2,3,4-tetrahydroquinolin-3-yl)methyl)acrylamide]
> 6.00		C=CC(=O)NC1Cc2c(Nc3ccccc3)cccc2N(c2ccc(C(F)(F)F)cc2)C1 (centres unmarked) [compound 069, N-(5-(phenylamino)-1-(4-(trifluoromethyl)phenyl)-1,2,3,4-tetrahydroquinolin-3-yl)acrylamide]
> 6.00		C=CC(=O)NCC1Cc2ccccc2N(c2ccc(S(F)(F)(F)(F)F)cc2)C1 (centres unmarked) [compound 117, N-((1-(4-(pentafluoro-λ^6-sulfaneyl)phenyl)-1,2,3,4-tetrahydroquinolin-3-yl)methyl)acrylamide]
> 6.00		C=CC(=O)NCC1Cc2ccccc2N(c2ccc(C(C)C)cc2)C1 (centres unmarked) [compound 087, N-((1-(4-isopropylphenyl)-1,2,3,4-tetrahydroquinolin-3-yl)methyl)acrylamide]
> 6.00		C=CC(=O)NCC1Cc2ccccc2N(c2ccc(C(F)F)cc2)C1 (centres unmarked) [compound 105, N-((1-(4-(difluoromethyl)phenyl)-1,2,3,4-tetrahydroquinolin-3-yl)methyl)acrylamide]
< 4.70		C=CC(=O)NC1Cc2c(C(=O)NS(C)(=O)=O)cccc2N(c2ccc(C(F)(F)F)cc2)C1 (centres unmarked) [compound 160, 3-acrylamido-N-(methylsulfonyl)-1-(4-(trifluoromethyl)phenyl)-1,2,3,4-tetrahydroquinoline-5-carboxamide]
< 4.70		CC(C)(C)OC(=O)NC1Cc2c(Br)cccc2N(c2ccc(C(F)(F)F)cc2)C1 (centres unmarked) [compound 055, tert-butyl (5-bromo-1-(4-(trifluoromethyl)phenyl)-1,2,3,4-tetrahydroquinolin-3-yl)carbamate]
4.70 to 6.00		CC(C)=CC(=O)NCC1Cc2ccccc2N(c2ccc(C(F)(F)F)cc2)C1 (centres unmarked) [compound 099, 3-methyl-N-((1-(4-(trifluoromethyl)phenyl)-1,2,3,4-tetrahydroquinolin-3-yl)methyl)but-2-enamide]
> 6.00		C=CC(=O)NC1Cc2c(ccnc2N)N(c2ccc(C(F)(F)F)cc2)C1 (centres unmarked) [compound 146, N-(5-amino-1-(4-(trifluoromethyl)phenyl)-1,2,3,4-tetrahydro-1,6-naphthyridin-3-yl)acrylamide]
< 4.70		O=S(=O)(O)CCNCC1Cc2ccccc2N(c2ccc(C(F)(F)F)cc2)C1 (centres unmarked) [compound 183, 2-(((1-(4-(trifluoromethyl)phenyl)-1,2,3,4-tetrahydroquinolin-3-yl)methyl)amino)ethane-1-sulfonic acid]
> 6.00		C=CC(=O)NC1Cc2ccccc2N(S(=O)(=O)c2ccc(C(F)(F)F)cc2)C1 (centres unmarked) [compound 187, N-(1-((4-(trifluoromethyl)phenyl)sulfonyl)-1,2,3,4-tetrahydroquinolin-3-yl)acrylamide]
> 6.00		C#CC(=O)NCC1Cc2ccccc2N(c2ccc(C(F)(F)F)cc2)C1 (centres unmarked) [compound 119, N-((1-(4-(trifluoromethyl)phenyl)-1,2,3,4-tetrahydroquinolin-3-yl)methyl)propiolamide]
> 6.00		C=CC(=O)NCC1Cc2ccccc2N(c2ccc(OC(F)F)cc2)C1 (centres unmarked) [compound 107, N-((1-(4-(difluoromethoxy)phenyl)-1,2,3,4-tetrahydroquinolin-3-yl)methyl)acrylamide]
> 6.00		C=CC(=O)NCC1Cc2ccccc2N(c2ccc(C=O)cc2)C1 (centres unmarked) [compound 159, N-((1-(4-formylphenyl)-1,2,3,4-tetrahydroquinolin-3-yl)methyl)acrylamide]
> 6.00		C=CC(=O)NCC1CCc2ccccc2N1Cc1ccc(C(F)(F)F)cc1 (centres unmarked) [compound 189, N-((1-(4-(trifluoromethyl)benzyl)-1,2,3,4-tetrahydroquinolin-2-yl)methyl)acrylamide]
> 6.00		C=CC(=O)NCC1Cc2ccccc2N(c2ccc(C#N)nc2)C1 (centres unmarked) [compound 151, N-((1-(6-cyanopyridin-3-yl)-1,2,3,4-tetrahydroquinolin-3-yl)methyl)acrylamide]
> 6.00		C=CC(=O)NC1Cc2c(Br)cccc2N(c2ccc(C(F)(F)F)cc2)C1 (centres unmarked) [compound 058, N-(5-bromo-1-(4-(trifluoromethyl)phenyl)-1,2,3,4-tetrahydroquinolin-3-yl)acrylamide]
< 4.70		C=CC(=O)NCC1Cc2ccccc2N(c2cccc(-c3ccccc3)c2)C1 (centres unmarked) [compound 093, N-((1-([1,1′-biphenyl]-3-yl)-1,2,3,4-tetrahydroquinolin-3-yl)methyl)acrylamide]
> 6.00		C=CC(=O)NC1Cc2c(Cc3cccc(C#N)c3)cccc2N(c2ccc(C(F)(F)F)cc2)C1 (centres unmarked) [compound 062, N-(5-(3-cyanobenzyl)-1-(4-(trifluoromethyl)phenyl)-1,2,3,4-tetrahydroquinolin-3-yl)acrylamide]
> 6.00		C=CC(=O)NCC1Cc2ccccc2N(C(=O)C2CCCCC2)C1 (centres unmarked) [compound 180, N-((1-(cyclohexanecarbonyl)-1,2,3,4-tetrahydroquinolin-3-yl)methyl)acrylamide]
